According to PMC9323266, “Competitive Metabolism of Polycyclic Aromatic Hydrocarbons (PAHs): An Assessment Using In Vitro Metabolism and Physiologically Based Pharmacokinetic (PBPK) Modeling” (International Journal of Environmental Research and Public …, 2022):
Where two headings read alike, the source gives them in different places.

Assays:
[1] = system: CYP1A1 and CYP2C19; details: Supersomes expressing human CYPs; cited from earlier work
[2] = system: CYP3A4; details: Supersomes expressing human CYPs; cited from earlier work
[3] = design: method as in PMID 34933053; details: cited from earlier work
[4] = In vitro metabolism (substrate disappearance) in pooled human liver microsomes; format: in vitro ADME; details: both sexes; for microsomal CLint: human, microsomes, pH 7.4, human hepatic microsomes
Description: (§1) Pooled human liver microsome samples were obtained from Sekisui Xenotech, LLC (Kansas City, KS, USA). Pooled samples contained contributions from 200 individuals having equal male:female ratio and predominantly from humans between 19 and 78 years of age (3 individuals 10–18 years old).
(§2) Briefly, within 500 µL total volume, reactions consisted of MgCl2 (3 mM), microsomes (2.0 mg/mL), 0.1 M phosphate buffer (pH 7.4), and excess NADPH (1.5 mM). Control samples using inactivated microsomes absent of NADPH were also included. Microsomes were preactivated via 37 °C incubation on a thermal shaker for 5 min. […] Samples were incubated at 37 °C for 0–30 min or 0–60 min, respectively. Reactions were quenched by adding 500 µL 0.9 M H2SO4, and samples were immediately placed on ice until extraction. A standard curve was prepared (0.015 µM–25.0 µM) in inactivated microsomes. An internal standard was added to each quenched sample (DBC for BaP kinetics reactions and BaP for DBC kinetics reactions). Experiments were performed in triplicate.
(§3) Analytes were extracted from samples with liquid–liquid extraction and measured using high-performance liquid chromatography (HPLC). First, BaP, DBC, or retene was added as an internal standard depending on incubations conditions being tested. Samples were extracted using three 500 µL volumes of ethyl acetate. Extracts were dried under a gentle stream of nitrogen and resolubilized in 500 µL methanol. Analytes were quantified by reverse phase HPLC using an Agilent 1260 Infinity HPLC system equipped with an Agilent G4290B variable wavelength detector and an Agilent G1321B SPECTRA fluorescence detector (Santa Clara, CA, USA). Sample (10 µL) was injected into an Ascentis 25 cm × 4.6 mm, 5 µm C18 column (Sigma-Aldrich, St. Louis, MO, USA). A gradient of water and acetonitrile from 55:45 to 0:100 was employed from 0 to 10 min and then was held at 100% acetonitrile until 22 min at a flow rate of 0.95 mL/min. […] Excitation and emission wavelengths were 230 nm and 430 nm, respectively. […] Quantification was accomplished using a linear regression fit to an external calibration curve prepared in tandem with samples.
(§4) As with previous in vitro PAH metabolism studies conducted in our lab, metabolism rates were calculated based on substrate disappearance. […] Confidence intervals of metabolism rates were calculated using a nonparametric bootstrap, where metabolism rates were resampled with replacement at each concentration, and the regression was repeated on the resampled dataset (n = 1000).
(§5) These two models include a Michaelis–Menten clearance equation for non-saturable high-capacity/low-affinity enzymes (Equation (2)) and a double Michaelis–Menten equation for saturable high-capacity/low-affinity enzymes (Equation (3)). Models were optimized using a maximum likelihood objective. The Bayesian information criterion (BIC) was used to judge the best-fit model for evaluating metabolism. For Michaelis–Menten kinetics, intrinsic clearance values (Clint) of the first order phase were estimated by dividing the Vmax by the respective Km. Fit parameter confidence intervals were calculated using a parametric bootstrap (n = 1000), where each best fit model was re-optimized to sampled metabolic rates assuming a normal distribution at each […]:(1) dS/dt=Vmax×S/Km+S (2) dS/dt=Vmax1×S/Km1+S+Clint2×S (3) dS/dt=Vmax1×S/Km1+S+Vmax2×S/Km2+S

[5] = system: human hepatic microsomes; test: as above; format: in vitro ADME; details: human hepatic microsomes
Description: as §1, §2, §3, §4, §5

[6] = biological target: dibenzo[def,p]chrysene (DBC) metabolism in human hepatic microsomes; test: Competitive inhibition of DBC metabolism in human hepatic microsomes; format: in vitro ADME; details: substrate DBC 0.17 µM initial, human hepatic microsomes, apparent Ki, Equation (4); read-out: Inhibition constant (Ki) of competitive inhibitor to DBC metabolism
Description: (§6) Competitive inhibition of PAH metabolism was measured using conditions described above. […] Each experimental condition (e.g., substrate, concentration, time point, etc.) was conducted in triplicate.
(§7) Analytes were extracted from samples with liquid–liquid extraction and measured using high-performance liquid chromatography (HPLC). First, BaP, DBC, or retene was added as an internal standard depending on incubations conditions being tested. Samples were extracted using three 500 µL volumes of ethyl acetate. Extracts were dried under a gentle stream of nitrogen and resolubilized in 500 µL methanol. Analytes were quantified by reverse phase HPLC using an Agilent 1260 Infinity HPLC system equipped with an Agilent G4290B variable wavelength detector and an Agilent G1321B SPECTRA fluorescence detector (Santa Clara, CA, USA). […] Quantification was accomplished using a linear regression fit to an external calibration curve prepared in tandem with samples.
as §4, with “1000). […]” for “1000).”

[7] = system: DBC metabolism in human hepatic microsomes; test: as above; format: in vitro ADME; details: both sexes, human, pH 7.4
Description: as §6, §7
as §4, with “1000). […]” for “1000).”

[8] = cited from earlier work; for Carcinogenic (classifying agencies): classified as Suspected, Possible, Probable, or Confirmed carcinogen in animal models or humans by EPA, IARC or ACGIH
[9] = system: benzo[a]pyrene (BaP) metabolism in human hepatic microsomes; test: Competitive inhibition of BaP metabolism in human hepatic microsomes; format: in vitro ADME
Description: as §6, §7
as §4, with “1000). […]” for “1000).”

[10] = Michaelis-Menten clearance model fit, high-affinity/low-capacity enzyme

c1ccc2c(c1)cc1ccc3cccc4ccc2c1c34 [BaP, benzo[a]pyrene]
Share of BaP-7,8-diol produced by CYP1A1 and CYP2C19 [1]: 96% | Share of 3-hydroxy-BaP produced by CYP3A4 [2]: 53% | log Kow [3]: 6.13 | microsomal CLint ([4]; first order phase, Vmax divided by Km, read-out: Clint 1): 72 µL/min/mg | microsomal CLint ([4]; non-saturable low-affinity/high-capacity enzyme, read-out: Clint 2): 1.2 µL/min/mg | Km ([4]; pH 7.4, human hepatic microsomes, Michaelis-Menten clearance model fit, high-affinity/low-capacity enzyme, read-out: Km 1): 0.088 µM | Intrinsic clearance compared to that of DBC [5]: nearly five-fold faster | Vmax1 [5, 10]: 0.0063 nmol/min/mg Micro | Ki [6]: 61 nM | inhibition at 1 µM [7]: 62%

c1ccc2c(c1)cc1ccc3cccc4c5ccccc5c2c1c34 [DBC, dibenzo[def,p]chrysene]
Relative Potency Factor ([8]; cancer potency relative to BaP index compound): 30 | Inhibition of the rate of BaP metabolism ([9]; inhibitor ≥1 µM, 0.14 µM BaP initial substrate concentration): ≥ 48% | Ki ([9]; read-out: Inhibition constant (Ki) of competitive inhibitor to BaP metabolism, substrate BaP 0.14-0.18 µM initial, human hepatic microsomes, apparent Ki, Equation (4)): 440 nM | log Kow [3]: 7.71 | Rates of metabolism, times slower than rates of BaP metabolism [5]: 3–5 times | Vmax1 [5, 10]: 0.0009 nmol/min/mg Micro | Km ([5]; Michaelis-Menten clearance model fit, high-affinity/low-capacity enzyme, read-out: Km 1): 0.06 µM | Clint 1 ([5]; first order phase, Vmax divided by Km): 0.015 mL/min | Clint 2 ([5]; non-saturable low-affinity/high-capacity enzyme): 0.0017 mL/min

c1ccc2c(c1)ccc1c3ccccc3ccc21 [chrysene]
Carcinogenic (classifying agencies) [8]: EPA, ACGIH

c1ccc2cc3c(ccc4ccccc43)cc2c1 [benzo(a)anthracene]
Carcinogenic (classifying agencies) [8]: EPA, IARC, ACGIH

c1ccc2ccccc2c1 [naphthalene]
Carcinogenic (classifying agencies) [8]: EPA, IARC, ACGIH
